Experimental data: ChEMBL document CHEMBL1671662, “In vitro activities of telavancin and six comparator agents against anaerobic bacterial isolates” (2009)
Values after ≈ are worked out from the molar mass of the structure shown.

What was measured:
Clostridioides difficile = test: Antibacterial activity against Clostridium difficile by CLSI M11-A6 agar dilution method; assay type: functional
Blautia producta = test: Antibacterial activity against Ruminococcus productus by CLSI M11-A6 agar dilution method; assay type: functional
Eggerthella lenta = test: Antibacterial activity against Eggerthella lenta by CLSI M11-A6 agar dilution method; assay type: functional
Ruminococcus obeum = test: Antibacterial activity against Ruminococcus obeum by CLSI M11-A6 agar dilution method; assay type: functional; settings: Blautia obeum
Actinomyces naeslundii = test: Antibacterial activity against Actinomyces naeslundii by CLSI M11-A6 agar dilution method; assay type: functional
Clostridium bolteae = test: Antibacterial activity against Clostridium bolteae by CLSI M11-A6 agar dilution method; assay type: functional; settings: Enterocloster bolteae
Finegoldia magna = test: Antibacterial activity against Finegoldia magna by CLSI M11-A6 agar dilution method; assay type: functional
Clostridium sporogenes = test: Antibacterial activity against Clostridium sporogenes by CLSI M11-A6 agar dilution method; assay type: functional
Clostridium sp. = test: Antibacterial activity against Clostridium sp. by CLSI M11-A6 agar dilution method; assay type: functional
Streptococcus anginosus = test: Antibacterial activity against Streptococcus anginosus by CLSI M11-A6 agar dilution method; assay type: functional
[1] = tested on: Parabacteroides distasonis; test: Antibacterial activity against Parabacteroides distasonis by CLSI M11-A6 agar dilution method; assay type: functional
Bacteroides ovatus = test: Antibacterial activity against Bacteroides ovatus by CLSI M11-A6 agar dilution method; assay type: functional
Prevotella bivia = test: Antibacterial activity against Prevotella bivia by CLSI M11-A6 agar dilution method; assay type: functional
Hoylesella oralis = test: Antibacterial activity against Prevotella oralis by CLSI M11-A6 agar dilution method; assay type: functional
Prevotella nigrescens = test: Antibacterial activity against Prevotella nigrescens by CLSI M11-A6 agar dilution method; assay type: functional
Blautia luti = test: Antibacterial activity against Ruminococcus luti by CLSI M11-A6 agar dilution method; assay type: functional
Prevotella intermedia = test: Antibacterial activity against Prevotella P intermedia by CLSI M11-A6 agar dilution method; assay type: functional
Fusobacterium varium = test: Antibacterial activity against Fusobacterium varium by CLSI M11-A6 agar dilution method; assay type: functional
Thomasclavelia ramosa = test: Antibacterial activity against Clostridium ramosum by CLSI M11-A6 agar dilution method; assay type: functional
Fusobacterium mortiferum = test: Antibacterial activity against Fusobacterium mortiferum by CLSI M11-A6 agar dilution method; assay type: functional
[2] = tested on: Bifidobacterium adolescentis; test: Antibacterial activity against Bifidobacterium adolescentis by CLSI M11-A6 agar dilution method; assay type: functional
Prevotella oris = test: Antibacterial activity against Prevotella oris by CLSI M11-A6 agar dilution method; assay type: functional; settings: Segatella oris
[3] = tested on: Sutterella wadsworthensis; test: Antibacterial activity against Sutterella wadsworthensis by CLSI M11-A6 agar dilution method; assay type: functional
Anaerococcus prevotii = test: Antibacterial activity against Anaerococcus prevotii by CLSI M11-A6 agar dilution method; assay type: functional
Holdemania filiformis = test: Antibacterial activity against Holdemania filiformis by CLSI M11-A6 agar dilution method; assay type: functional
Clostridium disporicum = test: Antibacterial activity against Clostridium disporicum by CLSI M11-A6 agar dilution method; assay type: functional
[4] = tested on: Clostridium paraputrificum; test: Antibacterial activity against Clostridium paraputrificum by CLSI M11-A6 agar dilution method; assay type: functional
[5] = tested on: Bifidobacterium pseudolongum; test: Antibacterial activity against Bifidobacterium pseudolongum by CLSI M11-A6 agar dilution method; assay type: functional
Ruminococcus albus = test: Antibacterial activity against Ruminococcus albus by CLSI M11-A6 agar dilution method; assay type: functional; settings: Hominimerdicola alba
Hoylesella loescheii = test: Antibacterial activity against Prevotella loescheii by CLSI M11-A6 agar dilution method; assay type: functional
Clostridium hathewayi = test: Antibacterial activity against Clostridium hathewayi by CLSI M11-A6 agar dilution method; assay type: functional; settings: Hungatella hathewayi
Collinsella aerofaciens = test: Antibacterial activity against Colinsella aerofaciens by CLSI M11-A6 agar dilution method; assay type: functional
Prevotella denticola = test: Antibacterial activity against Prevotella P denticola by CLSI M11-A6 agar dilution method; assay type: functional
Clostridium = test: Antibacterial activity against Clostridium hypermegas by CLSI M11-A6 agar dilution method; assay type: functional
Clostridium subterminale = test: Antibacterial activity against Clostridium subterminale by CLSI M11-A6 agar dilution method; assay type: functional
[6] = tested on: Clostridium sporosphaeroides; test: Antibacterial activity against Clostridium sporosphaeroides by CLSI M11-A6 agar dilution method; assay type: functional; settings: Faecalispora sporosphaeroides
Coriobacterium = test: Antibacterial activity against […] by CLSI M11-A6 agar dilution method; assay type: functional
[7] = Antibacterial activity against Bifidobacterium infantis by CLSI M11-A6 agar dilution method; assay type: functional, Bifidobacterium longum subsp. infantis; settings: Bifidobacterium longum
[8] = tested on: Coprobacillus cateniformis; test: Antibacterial activity against Coprobacillus cateniformis by CLSI M11-A6 agar dilution method; assay type: functional

With CCCCCCCCCC(=O)N[C@@H](Cc1c[nH]c2ccccc12)C(=O)N[C@H](CC(N)=O)C(=O)N[C@@H](CC(=O)O)C(=O)N[C@@H]1C(=O)NCC(=O)N[C@@H](CCCN)C(=O)N[C@@H](CC(=O)O)C(=O)N[C@H](C)C(=O)N[C@@H](CC(=O)O)C(=O)NCC(=O)N[C@H](CO)C(=O)N[C@@H]([C@H](C)CC(=O)O)C(=O)N[C@@H](CC(=O)c2ccccc2N)C(=O)O[C@@H]1C the MIC50 (Clostridioides difficile) was 0.5 µg/mL (≈ 0.309 µM), the MIC90 (Clostridioides difficile) was 1 µg/mL (≈ 0.617 µM) and the MIC50 (Blautia producta) was 1 µg/mL (≈ 0.617 µM). The MIC90 (Blautia producta) was 2 µg/mL (≈ 1.23 µM), the MIC50 (Eggerthella lenta) was 1 µg/mL (≈ 0.617 µM) and the MIC90 (Eggerthella lenta) was 32 µg/mL (≈ 19.7 µM). The MIC50 (Ruminococcus obeum) was 0.5 µg/mL (≈ 0.309 µM), the MIC90 (Ruminococcus obeum) was 0.5 µg/mL (≈ 0.309 µM) and the MIC50 (Actinomyces naeslundii) was 1 µg/mL (≈ 0.617 µM). The MIC90 (Actinomyces naeslundii) was 32 µg/mL (≈ 19.7 µM), the MIC50 (Clostridium bolteae) was 4 µg/mL (≈ 2.47 µM) and the MIC90 (Clostridium bolteae) was 4 µg/mL (≈ 2.47 µM). For the same molecule, the MIC50 (Finegoldia magna) was 1 µg/mL (≈ 0.617 µM), the MIC90 (Finegoldia magna) was 4 µg/mL (≈ 2.47 µM) and the MIC50 (Clostridium sporogenes) was 1 µg/mL (≈ 0.617 µM). For the same molecule, the MIC90 (Clostridium sporogenes) was 8 µg/mL (≈ 4.94 µM), the MIC50 (Clostridium sp.) was 1 µg/mL (≈ 0.617 µM) and the MIC90 (Clostridium sp.) was 8 µg/mL (≈ 4.94 µM). The MIC50 (Streptococcus anginosus) was 2 µg/mL (≈ 1.23 µM), the MIC90 (Streptococcus anginosus) was 4 µg/mL (≈ 2.47 µM) and the MIC [1] was greater than 128 µg/mL. It also gave an MIC50 [1] greater than 128 µg/mL, an MIC90 [1] greater than 128 µg/mL and an MIC (Bacteroides ovatus) greater than 128 µg/mL. It also gave an MIC50 (Bacteroides ovatus) greater than 128 µg/mL, an MIC90 (Bacteroides ovatus) greater than 128 µg/mL and an MIC (Prevotella bivia) greater than 128 µg/mL. The MIC50 (Prevotella bivia) was greater than 128 µg/mL, the MIC90 (Prevotella bivia) was greater than 128 µg/mL and the MIC (Hoylesella oralis) was greater than 128 µg/mL. For the same molecule, the MIC50 (Hoylesella oralis) was greater than 128 µg/mL, the MIC90 (Hoylesella oralis) was greater than 128 µg/mL and the MIC (Prevotella nigrescens) was greater than 128 µg/mL. It also gave an MIC50 (Prevotella nigrescens) greater than 128 µg/mL, an MIC90 (Prevotella nigrescens) greater than 128 µg/mL and an MIC50 (Blautia luti) of 1 µg/mL (≈ 0.617 µM). It also gave an MIC90 (Blautia luti) of 2 µg/mL (≈ 1.23 µM), an MIC (Prevotella intermedia) greater than 128 µg/mL and an MIC50 (Prevotella intermedia) greater than 128 µg/mL. The MIC90 (Prevotella intermedia) was greater than 128 µg/mL, the MIC (Fusobacterium varium) was greater than 128 µg/mL and the MIC50 (Fusobacterium varium) was greater than 128 µg/mL. For the same molecule, the MIC90 (Fusobacterium varium) was greater than 128 µg/mL, the MIC50 (Thomasclavelia ramosa) was 64 µg/mL (≈ 39.5 µM) and the MIC90 (Thomasclavelia ramosa) was 64 µg/mL (≈ 39.5 µM). For the same molecule, the MIC (Fusobacterium mortiferum) was greater than 128 µg/mL, the MIC50 (Fusobacterium mortiferum) was greater than 128 µg/mL and the MIC90 (Fusobacterium mortiferum) was greater than 128 µg/mL. For the same molecule, the MIC50 [2] was 1 µg/mL (≈ 0.617 µM), the MIC90 [2] was 32 µg/mL (≈ 19.7 µM) and the MIC (Prevotella oris) was greater than 128 µg/mL. For the same molecule, the MIC50 (Prevotella oris) was greater than 128 µg/mL, the MIC90 (Prevotella oris) was greater than 128 µg/mL and the MIC [3] was greater than 128 µg/mL. For the same molecule, the MIC50 [3] was greater than 128 µg/mL, the MIC90 [3] was greater than 128 µg/mL and the MIC50 (Anaerococcus prevotii) was 1 µg/mL (≈ 0.617 µM). For the same molecule, the MIC90 (Anaerococcus prevotii) was 4 µg/mL (≈ 2.47 µM), the MIC50 (Holdemania filiformis) was 1 µg/mL (≈ 0.617 µM) and the MIC90 (Holdemania filiformis) was 32 µg/mL (≈ 19.7 µM). It also gave an MIC50 (Clostridium disporicum) of 1 µg/mL (≈ 0.617 µM), an MIC90 (Clostridium disporicum) of 8 µg/mL (≈ 4.94 µM) and an MIC50 [4] of 1 µg/mL (≈ 0.617 µM). The MIC90 [4] was 8 µg/mL (≈ 4.94 µM), the MIC50 [5] was 1 µg/mL (≈ 0.617 µM) and the MIC90 [5] was 32 µg/mL (≈ 19.7 µM). The MIC50 (Ruminococcus albus) was 1 µg/mL (≈ 0.617 µM), the MIC90 (Ruminococcus albus) was 2 µg/mL (≈ 1.23 µM) and the MIC (Hoylesella loescheii) was greater than 128 µg/mL. For the same molecule, the MIC50 (Hoylesella loescheii) was greater than 128 µg/mL, the MIC90 (Hoylesella loescheii) was greater than 128 µg/mL and the MIC50 (Clostridium hathewayi) was 1 µg/mL (≈ 0.617 µM). It also gave an MIC90 (Clostridium hathewayi) of 2 µg/mL (≈ 1.23 µM), an MIC50 (Collinsella aerofaciens) of 1 µg/mL (≈ 0.617 µM) and an MIC90 (Collinsella aerofaciens) of 32 µg/mL (≈ 19.7 µM). It also gave an MIC (Prevotella denticola) greater than 128 µg/mL, an MIC50 (Prevotella denticola) greater than 128 µg/mL and an MIC90 (Prevotella denticola) greater than 128 µg/mL. For the same molecule, the MIC50 (Clostridium) was 1 µg/mL (≈ 0.617 µM), the MIC90 (Clostridium) was 8 µg/mL (≈ 4.94 µM) and the MIC50 (Clostridium subterminale) was 1 µg/mL (≈ 0.617 µM). The MIC90 (Clostridium subterminale) was 2 µg/mL (≈ 1.23 µM), the MIC50 [6] was 1 µg/mL (≈ 0.617 µM) and the MIC90 [6] was 8 µg/mL (≈ 4.94 µM). For the same molecule, the MIC50 (Coriobacterium) was 1 µg/mL (≈ 0.617 µM), the MIC90 (Coriobacterium) was 32 µg/mL (≈ 19.7 µM) and the MIC50 [7] was 1 µg/mL (≈ 0.617 µM). The MIC90 [7] was 32 µg/mL (≈ 19.7 µM), the MIC50 [8] was 1 µg/mL (≈ 0.617 µM) and the MIC90 [8] was 32 µg/mL (≈ 19.7 µM).
